The text below walks through data of patent publication US10766903B2 (ALMAC DISCOVERY LIMITED, priority 2016, dated 2020).

Like-named read-outs stand apart in the source and are kept apart here.

This assay addresses USP7 (Homo sapiens (Human), UniProt Q93009). Kind of assay: USP7 fluorescence polarisation (FP) biochemical assay, ubiquitin-Lys-TAMRA substrate. As to conditions: average of at least duplicate experiments. The method, boiled down:
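Full-length His6-USP7 (2.5 nM) incubated ± inhibitor (8-point dilutions, 200 to 0.1 μM before addition) in 50 mM HEPES pH 7.2, 150 mM NaCl, 0.5 mM EDTA, 5 mM DTT, 0.05% BSA, 0.05% CHAPS. Ubiquitin-Lys-TAMRA cleavage followed by FP (ex 530/em 575 nm) every 15 min for 1.5 h; normalised to no-compound control.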
(Polarisation of emitted light reports the rotation of a fluorescent probe.)

Where [1] appears, read: Table 4, biochemical assay, read-out: USP7 IC50.

Sequence of USP7 (Q93009 whole entry): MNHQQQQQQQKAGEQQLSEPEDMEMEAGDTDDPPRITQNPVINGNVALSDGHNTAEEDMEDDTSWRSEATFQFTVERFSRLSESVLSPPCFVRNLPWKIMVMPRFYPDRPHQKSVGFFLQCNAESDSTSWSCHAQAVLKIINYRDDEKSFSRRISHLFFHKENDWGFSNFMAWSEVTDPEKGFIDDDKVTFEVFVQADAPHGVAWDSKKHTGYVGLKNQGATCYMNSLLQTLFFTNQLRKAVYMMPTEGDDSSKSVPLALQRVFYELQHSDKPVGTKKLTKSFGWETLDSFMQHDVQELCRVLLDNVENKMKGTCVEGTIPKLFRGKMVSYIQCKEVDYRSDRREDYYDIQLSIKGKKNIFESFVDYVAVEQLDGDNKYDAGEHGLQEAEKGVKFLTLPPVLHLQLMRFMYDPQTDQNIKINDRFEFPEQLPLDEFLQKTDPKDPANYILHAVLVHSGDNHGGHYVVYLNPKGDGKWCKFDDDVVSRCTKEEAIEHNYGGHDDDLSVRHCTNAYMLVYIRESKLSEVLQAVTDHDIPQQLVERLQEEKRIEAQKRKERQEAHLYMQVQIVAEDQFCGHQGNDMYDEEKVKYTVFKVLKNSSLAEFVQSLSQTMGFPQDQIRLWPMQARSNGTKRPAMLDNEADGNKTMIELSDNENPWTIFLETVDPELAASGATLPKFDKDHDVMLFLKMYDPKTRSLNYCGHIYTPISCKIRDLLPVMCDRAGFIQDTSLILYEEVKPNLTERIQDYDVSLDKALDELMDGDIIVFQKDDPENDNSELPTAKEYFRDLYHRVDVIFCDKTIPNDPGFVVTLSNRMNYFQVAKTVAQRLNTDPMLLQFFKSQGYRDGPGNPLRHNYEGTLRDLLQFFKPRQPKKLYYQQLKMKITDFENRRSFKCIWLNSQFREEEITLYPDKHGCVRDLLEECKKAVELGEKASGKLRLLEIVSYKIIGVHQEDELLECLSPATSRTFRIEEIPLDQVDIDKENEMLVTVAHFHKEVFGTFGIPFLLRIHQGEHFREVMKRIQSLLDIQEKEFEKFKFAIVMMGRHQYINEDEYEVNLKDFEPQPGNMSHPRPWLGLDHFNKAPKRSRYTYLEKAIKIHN

One may read the IC50 as the concentration at which inhibition is half-maximal. Take `COc1cc(-n2c(Cl)cc3c(=O)n(CC4(O)CCN(C(=O)C5(C)CC5)CC4)cnc32)ccc1F` [Example 207, 6-Chloro-7-(4-fluoro-3-methoxyphenyl)-3-((4-hydroxy-1-(1-methylcyclopropanecarbonyl)piperidin-4-yl)methyl)-3H-pyrrolo[2,3-d]pyrimidin-4(7H)-one]: the IC50 under setting [1] fell in the range of 250 to 999 nM.
Same read-out and setting: next, `CCOC(=O)NCc1ccc(-c2c3ncn(CC4(O)CCN(C(=O)C[C@@H](C)c5ccccc5)CC4)c(=O)c3nn2C)cc1` [Example 194, (R)-Ethyl 4-(6-((4-hydroxy-1-(3-phenylbutanoyl)piperidin-4-yl)methyl)-2-methyl-7-oxo-6,7-dihydro-2H-pyrazolo[4,3-d]pyrimidin-3-yl)benzylcarbamate]: < 250 nM; `C[C@H](CC(=O)N1CCC(O)(Cn2cnc(-c3cncnc3)cc2=O)CC1)c1ccccc1` [Example 102]: 1000 to 200000 nM.
As for `Cc1c(NCCN2CCCC2)ncn(CC2(O)CCN(C(=O)C[C@@H](C)c3ccccc3)CC2)c1=O` [Example 111, (R)-3-((4-Hydroxy-1-(3-phenylbutanoyl)piperidin-4-yl)methyl)-5-methyl-6-((2-(pyrrolidin-1-yl)ethyl)amino)pyrimidin-4(3H)-one], the IC50 under setting [1] was 1000 to 200000 nM.
Consider `C[C@H](CC(=O)N1CCC(O)(Cn2cnc(Cl)cc2=O)CC1)c1ccccc1` [Example 1, (R)-6-Chloro-3-((4-hydroxy-1-(3-phenylbutanoyl)piperidin-4-yl)methyl)pyrimidin-4(3H)-one], for which, under setting [1], the IC50 was 1000 to 200000 nM.
Still for that read-out and setting: next, `C[C@H](CC(=O)N1CCC(O)(Cn2cnc(NCc3ccc(Cl)cc3)cc2=O)CC1)c1ccccc1` [Example 157, (R)-6-((4-chlorobenzyl)amino)-3-((4-hydroxy-1-(3-phenylbutanoyl)piperidin-4-yl)methyl)pyrimidin-4(3H)-one]: 1000 to 200000 nM; `C[C@H](CC(=O)N1CCC(O)(Cn2cnc(N3CCC[C@H](N(C)C)C3)cc2=O)CC1)c1ccccc1` [Example 50, 6-((S)-3-(Dimethylamino)piperidin-1-yl)-3-((4-hydroxy-1-((R)-3-phenylbutanoyl)piperidin-4-yl)methyl)pyrimidin-4(3H)-one]: < 250 nM.
On the same count and under the same terms, then `CC1(C(=O)N2CCC(O)(Cn3cnc4c(cc(Cl)n4-c4ccc(CN)cc4)c3=O)CC2)CC1` [Example 241, 7-(4-(Aminomethyl)phenyl)-6-chloro-3-((4-hydroxy-1-(1-methylcyclopropane-1-carbonyl)piperidin-4-yl)methyl)-3,7-dihydro-4H-pyrrolo[2,3-d]pyrimidin-4-one], with < 250 nM; and `NCc1ccc(-n2c(Cl)cc3c(=O)n(CC4(O)CCN(C(=O)c5cnc(C6CC6)o5)CC4)cnc32)cc1` [Example 242, 7-(4-(Aminomethyl)phenyl)-6-chloro-3-((1-(2-cyclopropyloxazole-5-carbonyl)-4-hydroxypiperidin-4-yl)methyl)-3,7-dihydro-4H-pyrrolo[2,3-d]pyrimidin-4-one], with < 250 nM.
Regarding `C[C@H](CC(=O)N1CCC(O)(Cn2cnc(N3CC4(CCCN4C)C3)cc2=O)CC1)c1ccccc1` [Example 178, (R)-3-((4-hydroxy-1-(3-phenylbutanoyl)piperidin-4-yl)methyl)-6-(5-methyl-2,5-diazaspiro[3.4]octan-2-yl)pyrimidin-4(3H)-one], the IC50 (USP7 IC50, Table 4, biochemical assay) was in the range of 250 to 999 nM.
In the case of `C[C@H](CC(=O)N1CCC(O)(Cn2cnc(NC3(C)COC3)cc2=O)CC1)c1ccccc1` [Example 155, (R)-3-((4-hydroxy-1-(3-phenylbutanoyl)piperidin-4-yl)methyl)-6-((3-methyloxetan-3-yl)amino)pyrimidin-4(3H)-one], the IC50 under setting [1] lay in the range of 1000 to 200000 nM.
On to `Cc1nn(C)cc1Nc1cc(=O)n(CC2(O)CCN(C(=O)C[C@@H](C)c3ccccc3)CC2)cn1` [Example 170, (R)-6-((1,3-dimethyl-1H-pyrazol-4-yl)amino)-3-((4-hydroxy-1-(3-phenylbutanoyl)piperidin-4-yl)methyl)pyrimidin-4(3H)-one], for which, under setting [1], the IC50 is 1000 to 200000 nM.
